Laboratory results: patent US11286231B2, “Hydrogen-bonding compounds, compositions comprising the same, and methods of preparing and using the same” (Wake Forest University Health Sciences, priority 2016, dated 2022)

Assay: Rheometer tensile strength T′ (adhesive force) test of HyStem hydrogels
Assay type: physicochemical
Details: for increase in T′ when concentration is doubled: 0.25% to 0.50% to 1.0% w/v; for fold increase in tensile strength T′: 1.0% w/v solution; for tensile strength T′: n=3
Experimental: To a 2 mL centrifuge tube, 200 μL of Heprasil® solution (1% w/v solution, thiolated HA component of HyStem kit), 200 μL of Gelin-S® solution (1% w/v, thiolated gelatin component of HyStem kit), 50 μL of Extralink® solution (2% w/v, polyethylene glycol diacrylate component of HyStem kit), and 50 μL of a modular catecholamine (C1.1) or amide […] solutions (0.25%-1.5% w/v, see Rheology section for specifics) were added and mixed by softly pipetting the solution up and down carefully to avoid creating bubbles. For control experiments the modular catecholamide or amine solutions were replaced with an equivalent volume of sterile deionized water. For rheology or cell culture studies, the reaction mixture was placed into wells of an appropriate size and exposed to UV radiation (˜222 nm) for 1-5 seconds.
A Discovery HR-2 Rheometer (TA Instruments) with an 8 mm geometry was used to collect the tensile strength, T′, data. The test was designed to quantify the axial force (Pa) exerted by the hydrogel on the geometry as measured by the rheometer as the geometry is slowly raised over 2000 μm at 25° C. The absolute value of the axial force (Pa) was then taken to be the adhesive force or tensile strength T′ (Pa) assigned to the hydrogel. To ensure standard conditions across all experiments the geometry was lowered into the gels until a calibration force of 0.4N was observed. Following, a rheometer tensile strength test was applied to the hydrogels at each of the respective conditions containing varying concentrations (0% w/v, 0.25% w/v, 0.50% w/v, and 1.0% w/v) of modular amine compounds, C1.0-C1.2. This experiment was repeated in triplicate for each condition.
While not wishing to be bound to any particular theory, our assumption here is that increased intermolecular interactions are occurring with the C1.2. In addition to the ortho-dihydroxyl groups offered by the catechol moiety, the amide moiety offers an extra hydrogen […] species, the carbonyl oxygen (C═O), for intermolecular interactions between the adjacent catecholamides. The catecholamides located on different HA chains or gelatin increase the ability for the hydrogel matrix to both interact with itself and other substrates through hydrogen bonding. Whereas the amine (C1.1) has a secondary carbon in the same position as the carbonyl functional group on the amide (C1.2), we postulate that the lack of this hydrogen bonding position yields a lower increase in G′ observed in hydrogel when comparing the two compounds. Again, to ensure standard conditions across all experiments, the geometry was lowered into the gels until a calibration force of 0.4N was detected. Following, a tensile strength test (25 μm/s, […], 25° C.) was applied to hydrogels containing varying concentrations (0%, 0.25%, […], and 1.0% w/v) of modular amine solutions, C1.1/C1.2. The reported values are the average T′ (Pa) values for n=3 runs at every condition and uncertainties were calculated from standard deviations between n=3 averaged T′ (Pa) for each condition. In FIG. 4, we report the following T′ (Pa) values for hydrogels containing C1.1: (1.10×10^2+/−2.91×10^1) Pa for Hystem® control, (2.90×10^2+/−1.23×10^2) Pa for Hystem®+0.25% w/v catecholamine, (4.25×10^2+/−1.01×10^2) Pa for Hystem® +0.50% w/v catecholamine, and (8.48×10^2+/−1.42×10^2) Pa for Hystem®+1.0% w/v catecholamine. […] In addition, we collected the following T′ values (Pa) for hydrogels containing C1.2: (1.09×10^2+3.64×10^1) Pa for Hystem® control, (3.33×10^2+/−6.16×10^1) Pa for Hystem®+0.25% w/v catecholamide, (4.12×10^2+/−6.39×10^1) Pa for Hystem®+0.50% w/v catecholamide, and (1.16×10^3+/−6.34×10^1) Pa for Hystem®+1.0% w/v catecholamide. […] Conclusively, we can say the increase in allotted tensile strength T′ (Pa) of the hydrogels when cross comparing compounds, C1.1 and C1.2, is due to the amide moiety having higher hydrogen bonding capacities.

[1] = Hystem + 0.25% w/v compound solution
[2] = Hystem + 0.50% w/v compound solution
[3] = Hystem + 1.0% w/v compound solution

| Compound | increase in T′ when concentration is doubled | fold increase in tensile strength T′ | tensile strength T′ [1] | increase in T′, 0.50% w/v to 1.0% w/v (Hystem + 0.50% w/v compared to Hystem + 1.0% w/v) | tensile strength T′ [2] | tensile strength T′ [3] |
| --- | --- | --- | --- | --- | --- | --- |
| C#CCNCc1ccc(O)c(O)c1 [Compound C1.1] | ~100% | approximately 4 fold | 2.90×10^2+/−1.23×10^2 Pa | 4.13×10^2+/−1.56×10^1 Pa | 4.25×10^2+/−1.01×10^2 Pa | 8.48×10^2+/−1.42×10^2 Pa |
| C#CCNC(=O)Cc1ccc(O)c(O)c1 [Compound C1.2] | 200% | ~6 fold | 3.33×10^2+/−6.16×10^1 Pa |  | 4.12×10^2+/−6.39×10^1 Pa | 1.16×10^3+/−6.34×10^1 Pa |
